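Each compound was tested at five concentrations against cells in 96-well plates for 48 hours. Abbreviation: GI50, concentration required for 50% inhibition of growth.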 The source made the active and inactive calls. Cut-off read from the data, not from the text of the source: active = GI50 up to about 1.1 µM and inactive = higher.
Experiments:
Assay in all cases: inhibition of tumour cell growth, NCI panel, 48 h
[1] = tested on: SK-MEL-2
[2] = tested on: IGROV-1
[3] = tested on: HT-29
[4] = tested on: ACHN
[5] = tested on: M14
[6] = tested on: SK-MEL-5
[7] = tested on: HCC 2998
[8] = tested on: NCI-H226
[9] = tested on: OVCAR-3
[10] = tested on: HCT-116
[11] = tested on: UO-31
[12] = tested on: OVCAR-4
[13] = tested on: MOLT-4
[14] = tested on: SNB-19
[15] = tested on: CCRF-CEM
[16] = tested on: A498
[17] = tested on: RXF 393
[18] = tested on: LOX IMVI

Measured: GI50

COc1ccc2c3c([nH]c2c1[N+](=O)[O-])C(C)N(C)CC3 (stereo unspecified)
inactive: [1] > 100 µM | [2] > 100 µM | [3] 18.9 µM | [4] > 100 µM | [5] > 100 µM | [6] 49.5 µM | [7] > 100 µM | [8] > 100 µM | [9] > 100 µM | [10] > 100 µM | [11] 76.2 µM | [12] 38 µM | [13] 51.6 µM | [14] > 100 µM | [15] 32.4 µM | [16] > 100 µM

S=C(Nc1ccccc1)Nc1ccccc1SC(/C=C/NNC1=NN=C(c2ccccc2)C(c2ccccc2)N1)c1ccccc1 (stereo unspecified)
inactive: [1] > 100 µM | [2] > 100 µM | [3] > 100 µM | [4] 69.7 µM | [5] > 100 µM | [17] 8.02 µM | [6] 44.6 µM | [7] 26.4 µM | [18] > 100 µM | [9] > 100 µM | [10] > 100 µM | [12] 5.68 µM | [13] 13.4 µM | [14] > 100 µM | [15] 28.5 µM | [16] > 100 µM

COc1c(O)c2c3c(cc(C)cc3c1C(C)C)OC2
inactive: [1] > 100 µM | [2] > 100 µM | [3] > 100 µM | [4] > 100 µM | [5] > 100 µM | [17] > 100 µM | [6] > 100 µM | [7] > 100 µM | [18] > 100 µM | [8] > 100 µM | [9] > 100 µM | [10] > 100 µM | [11] > 100 µM | [12] > 100 µM | [13] > 100 µM | [14] > 100 µM | [15] > 100 µM

CCOC1=C2C(=O)OC(=O)C2C2CCCCC2=C1 (stereo unspecified)
inactive: [1] > 100 µM | [2] > 100 µM | [3] > 100 µM | [5] > 100 µM | [17] > 100 µM | [6] > 100 µM | [7] > 100 µM | [18] > 100 µM | [9] > 100 µM | [10] > 100 µM | [11] > 100 µM | [12] > 100 µM | [13] > 100 µM | [14] > 100 µM | [15] > 100 µM | [16] > 10 µM

O=C(CO)C1CC2C=CC1C2 (stereo unspecified)
inactive: [1] > 100 µM | [2] > 100 µM | [3] > 100 µM | [4] > 100 µM | [5] > 100 µM | [17] > 100 µM | [6] > 100 µM | [18] > 100 µM | [9] > 100 µM | [10] > 100 µM | [11] > 100 µM | [12] > 100 µM | [13] > 100 µM | [14] > 100 µM | [15] > 100 µM | [16] > 100 µM

COc1cc2c(cc1OC)[Se]c1cc(OC)c(OC)cc1[Se]2
inactive: [1] > 10 µM | [2] > 10 µM | [3] 6.81 µM | [4] > 10 µM | [5] > 10 µM | [17] 15.1 µM | [6] > 10 µM | [18] 80 µM | [8] > 10 µM | [9] > 10 µM | [10] > 10 µM | [11] > 10 µM | [12] > 10 µM | [13] > 100 µM | [14] > 10 µM | [15] > 10 µM | [16] > 10 µM

COC(=O)[C@@]12C(=O)C=CC(=O)C1C1C(=CC2C)OC2OC3(CCCCC3)OC21 (stereo partly specified)
inactive: [1] 19 µM | [2] 18.1 µM | [3] 21.6 µM | [4] 16.9 µM | [5] 17.8 µM | [6] 19.3 µM | [7] 14.5 µM | [18] 20.5 µM | [8] 18.8 µM | [9] 19.6 µM | [10] 15.9 µM | [11] 16.8 µM | [12] 16.7 µM | [13] 6.11 µM | [14] 17.7 µM | [15] 2.52 µM | [16] 17.9 µM

O=C(O)c1c(-c2cccc3ccccc23)sc(-c2cccc3ccccc23)c1C(=O)O
inactive: [1] 35.9 µM | [2] > 100 µM | [3] > 100 µM | [4] > 100 µM | [5] > 100 µM | [17] > 100 µM | [6] > 100 µM | [7] > 100 µM | [18] > 100 µM | [8] > 100 µM | [9] 63.8 µM | [10] > 100 µM | [11] 88.3 µM | [13] 27.2 µM | [14] > 100 µM | [15] 22.1 µM

Cc1cccc(C)c1NC(=O)CCCC(=O)C(C#N)c1ccccc1 (stereo unspecified)
inactive: [1] > 100 µM | [2] > 100 µM | [3] > 10 µM | [4] > 100 µM | [5] > 100 µM | [17] > 100 µM | [6] > 100 µM | [7] > 10 µM | [8] > 100 µM | [9] > 10 µM | [10] > 100 µM | [11] > 100 µM | [12] > 100 µM | [13] > 100 µM | [14] > 10 µM | [15] > 100 µM | [16] > 10 µM

O=C1[C@H](Cl)[C@H]2c3cc4ccccc4nc3Oc3ccccc3N12
inactive: [1] 36.5 µM | [2] 32.7 µM | [3] 69.8 µM | [4] 28.4 µM | [5] 76.9 µM | [6] 30.9 µM | [7] 39.4 µM | [18] 36.7 µM | [8] 75.9 µM | [9] 48.4 µM | [10] 17.2 µM | [11] 14.9 µM | [12] 45.5 µM | [13] 27.7 µM | [14] 46.8 µM | [15] 61 µM | [16] 42.9 µM

c1ccc2c(c1)OCCOCCOc1ccccc1OCCO2
inactive: [1] 90.4 µM | [2] 71.8 µM | [3] 33.3 µM | [4] 51.9 µM | [5] 44.9 µM | [17] 60.1 µM | [6] 68.2 µM | [18] 51.9 µM | [8] 79.6 µM | [9] 28.2 µM | [10] 40.5 µM | [11] 30 µM | [12] 39.3 µM | [13] 47.5 µM | [14] 64.6 µM | [15] 34.4 µM | [16] > 100 µM

O=C(CSc1nnc[nH]1)C[P+](c1ccccc1)(c1ccccc1)c1ccccc1
inactive: [1] > 100 µM | [2] > 100 µM | [4] > 100 µM | [5] > 100 µM | [17] 61.4 µM | [6] > 100 µM | [7] > 100 µM | [18] > 100 µM | [9] 74.8 µM | [11] > 100 µM | [12] 94 µM | [13] 40.2 µM | [14] > 100 µM | [15] 78.2 µM

— ChEMBL document CHEMBL1201862, “PubChem BioAssay data set” (2004)
